# What was measured:
# [1] = system: basal cells and pyramidal cells of the airway epithelium; experiment: miRNA expression in sorted basal cells versus pyramidal cells (ciliated + secretory), HTS and Agilent chips; set-up: species or system human; settings: for Modulation of expression of the miRNAs in pyramidal cells (323(−)) relative to basal cells 323(+): HTS and Agilent chips; for Intensity of the level of expression in log2 in pyramidal cells (323(−)): pyramidal cells (ciliated + secretory)
# How it was run: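 miRNA repertoires measured by high-throughput sequencing or Agilent arrays on total RNA from sorted airway epithelial populations of 3 donors. Sorting used CD151-PE and anti-tissue factor-FITC: double-positive basal versus double-negative ciliated/secretory cells, with DAPI-stained and aggregated cells excluded.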
# [2] = system: human airway epithelial cells (HAECs); experiment: High-throughput sequencing (HTS) of miRNAs at four stages of differentiation of HAECs; settings: for Modulation (ratio of the level of intensity of expression in log2 in two stages of differentiation) measured by high-throughput sequencing, D7 − D0 / Modulation (ratio of the level of intensity of expression in log2 in two stages of differentiation) measured by high-throughput sequencing, FC − D7 / Modulation (ratio of the level of intensity of expression in log2 in two stages of differentiation) measured by high-throughput sequencing, WD − D0 / Modulation (ratio of the level of intensity of expression in log2 in two stages of differentiation) measured by high-throughput sequencing, WD − FC / Level of intensity of expression in log2 measured by high-throughput sequencing, D0 / Level of intensity of expression in log2 measured by high-throughput sequencing, D7 / Level of intensity of expression in log2 measured by high-throughput sequencing, FC / Level of intensity of expression in log2 measured by high-throughput sequencing, WD: Table VI; for Level of intensity of expression in log2 At the differentiated stage (WD) measured in HTS: healthy human airway epithelial tissue; for Level of intensity of expression in log2 measured by high-throughput sequencing, D0: stage D0; for Level of intensity of expression in log2 measured by high-throughput sequencing, D7: stage D7; for Level of intensity of expression in log2 measured by high-throughput sequencing, FC: stage FC; for Level of intensity of expression in log2 At the differentiated stage (WD) measured in HTS / Level of intensity of expression in log2 measured by high-throughput sequencing, WD: stage WD
# How it was run: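 Total RNA including small RNAs was taken from air-liquid interface cultures at ALI-D0, ALI-D7, ALI-FC (first cilia, ~14 days) and ALI-WD (~21 days). SOLiD small-RNA libraries were sequenced, and 5p/3p reads were normalized to 10^6 sequences and expressed as percentage abundance.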
# [3] = system: human airway epithelial cells (HAECs); experiment: Agilent miRNA chips, miRNA expression at four stages of differentiation of HAECs; settings: for Modulation (ratio of the level of intensity of expression in log2 in two stages of differentiation) measured with the Agilent chips, D7 − D0 / Modulation (ratio of the level of intensity of expression in log2 in two stages of differentiation) measured with the Agilent chips, FC − D7 / Modulation (ratio of the level of intensity of expression in log2 in two stages of differentiation) measured with the Agilent chips, WD − D0 / Modulation (ratio of the level of intensity of expression in log2 in two stages of differentiation) measured with the Agilent chips, WD − FC / Level of intensity of expression in log2 measured with the Agilent chips, D0 / Level of intensity of expression in log2 measured with the Agilent chips, D7 / Level of intensity of expression in log2 measured with the Agilent chips, FC / Level of intensity of expression in log2 measured with the Agilent chips, WD: Table VI; for Modulation (ratio of the level of intensity of expression in log2 at two stages of differentiation), FC − D7 / Modulation (ratio of the level of intensity of expression in log2 at two stages of differentiation), WD − FC: Agilent miRNA chips, Table V; for Level of intensity of expression in log2 measured with the Agilent chips, D0: stage D0; for Level of intensity of expression in log2 measured with the Agilent chips, D7: stage D7; for Level of intensity of expression in log2 measured with the Agilent chips, FC: stage FC; for Level of intensity of expression in log2 measured with the Agilent chips, WD: stage WD
# How it was run: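 Expression was profiled on Human miRNA Microarray v2 chips covering 866 human and 89 human viral miRNAs from miRBase v12.0. Labelled HAEC RNA came from the same patients used for sequencing and was hybridized per kit protocol. Chip and sequencing results were compared.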
Substance,Modulation of expression of the miRNAs in pyramidal cells (323(−)) relative to basal cells 323(+) [1],Intensity of the level of expression in log2 in basal cells (323(+)) [1],Intensity of the level of expression in log2 in pyramidal cells (323(−)) [1],"Modulation (ratio of the level of intensity of expression in log2 in two stages of differentiation) measured by high-throughput sequencing, D7 − D0 [2]","Modulation (ratio of the level of intensity of expression in log2 in two stages of differentiation) measured by high-throughput sequencing, FC − D7 [2]","Modulation (ratio of the level of intensity of expression in log2 in two stages of differentiation) measured by high-throughput sequencing, WD − D0 [2]","Modulation (ratio of the level of intensity of expression in log2 in two stages of differentiation) measured by high-throughput sequencing, WD − FC [2]",Level of intensity of expression in log2 At the differentiated stage (WD) measured in HTS [2],"Level of intensity of expression in log2 measured by high-throughput sequencing, D0 [2]","Level of intensity of expression in log2 measured by high-throughput sequencing, D7 [2]","Level of intensity of expression in log2 measured by high-throughput sequencing, FC [2]","Level of intensity of expression in log2 measured by high-throughput sequencing, WD [2]","Modulation (ratio of the level of intensity of expression in log2 in two stages of differentiation) measured with the Agilent chips, D7 − D0 [3]","Modulation (ratio of the level of intensity of expression in log2 at two stages of differentiation), FC − D7 [3]","Modulation (ratio of the level of intensity of expression in log2 in two stages of differentiation) measured with the Agilent chips, FC − D7 [3]","Modulation (ratio of the level of intensity of expression in log2 in two stages of differentiation) measured with the Agilent chips, WD − D0 [3]","Modulation (ratio of the level of intensity of expression in log2 at two stages of differentiation), WD − FC [3]","Modulation (ratio of the level of intensity of expression in log2 in two stages of differentiation) measured with the Agilent chips, WD − FC [3]","Level of intensity of expression in log2 measured with the Agilent chips, D0 [3]","Level of intensity of expression in log2 measured with the Agilent chips, D7 [3]",also measured
"hsa-miR-30b: human miRNA, SEQ ID No. 33 (UGUAAACAUCCUACACUCAGCU; expressed or natural sequence; listed as Homo sapiens)",−0.80,8.76 log2,7.96 log2,0.83 log2,−0.27 log2,1.24 log2,0.68 log2,0.01 log2,8.50 log2,9.33 log2,9.06 log2,9.74 log2,2.36 log2,0.05 log2,0.05 log2,2.55 log2,0.15 log2,0.15 log2,7.62 log2,9.98 log2,"Level of intensity of expression in log2 measured with the Agilent chips, FC [3]: 10.03 log2; Level of intensity of expression in log2 measured with the Agilent chips, WD [3]: 10.17 log2"
"hsa-miR-30c: human miRNA, SEQ ID No. 34 (UGUAAACAUCCUACACUCUCAGC; expressed or natural sequence; listed as Homo sapiens)",−1.01,6.92 log2,5.91 log2,0.32 log2,−0.33 log2,−0.40 log2,−0.39 log2,10.87 log2,0.42 log2,0.73 log2,0.41 log2,0.01 log2,1.97 log2,−0.34 log2,−0.34 log2,1.51 log2,−0.12 log2,−0.12 log2,7.80 log2,9.77 log2,"Level of intensity of expression in log2 measured with the Agilent chips, FC [3]: 9.43 log2; Level of intensity of expression in log2 measured with the Agilent chips, WD [3]: 9.31 log2"
